Data published in patent publication US20140030209A1, “TOPICAL LIQUID AGENT FOR THE TREATMENT OF DERMATOPHYTOSIS” (MEIJI SEIKA PHARMA CO., LTD., priority 2012, published 2014).

How the values were obtained:
[1] = tested on: Trichophyton rubrum (T. rubrum) ATCC10218; assay: Antifungal activity against dermatophytes (MIC, WST8); format: cell-based; details: 80% growth inhibiting concentration; RPMI1640/MOPS, 28° C., 4 days, 1% DMSO
Procedure: (§1) Measurement of the antifungal activity against dermatophytes of the compound of the formula (I) contained in the topical liquid agent of the present invention was carried out by the following method. The compound to be evaluated was used by dissolving in dimethyl sulfoxide (DMSO). As a medium for the test, RPMI1640 medium containing 0.165M of 3-morpholinopropanesulfonic acid (MOPS) was used. As fungi to be tested, Trichophyton mentagrophytes (T. mentagrophytes) ATCC18748 or Trichophyton rubrum (T. rubrum) ATCC10218 was used. The testing fungal strain was apportioned to […] with a concentration of 1×10^4 conidia/ml, mixed with a compound to be evaluated on a 96-well half area plate so that the DMSO concentration became 1%, and cultured at a cultivation temperature of 28° C. for 3 days (T. mentagrophytes) or 4 days (T. rubrum). Thereafter, 5 μl of Cell Counting Kit 8 (WST8) was added thereto, and absorbances at 450 nm and 595 nm were measured to use these as background values. Thereafter, these were cultivated at 28° C. for 5 hours (T. mentagrophytes) or overnight (T. rubrum) to cause a color, and absorbances at 450 nm and 595 nm were measured again. A growth inhibiting rate was calculated from the difference to the background values, and a 80% growth inhibiting concentration was made an MIC value […].

[2] = tested on: Trichophyton mentagrophytes (T. mentagrophytes) ATCC18748; assay: as above; format: cell-based; details: 80% growth inhibiting concentration; RPMI1640/MOPS, 28° C., 3 days, 1% DMSO
Procedure: as §1

| Structure (SMILES) | MIC (T. rubrum) [1] | MIC (T. mentagrophytes) [2] |
| --- | --- | --- |
| Cc1cc(C)n(-c2ccccc2O)n1 [compound 1] | B (4 to 16 μg/ml) | – |
| Cc1cc(C(F)(F)F)nn1-c1ccccc1O [compound 5] | D (>32 to 64 μg/ml) | – |
| Cc1nn(-c2ccccc2O)c(C)c1C [compound 9] | A (≦2 μg/ml) | A (≦1 μg/ml) |
| Cc1cc(C)n(-c2cc(Cl)ccc2O)n1 [compound 11] | D (>32 to 64 μg/ml) | – |
| Cc1nn(-c2ccccc2O)c(C)c1Cl [compound 13] | B (4 to 16 μg/ml) | A (≦1 μg/ml) |
| CCc1cc(CC)n(-c2ccccc2O)n1 [compound 14] | B (4 to 16 μg/ml) | – |
| Cc1cc(C)n(-c2cccc(O)c2O)n1 [compound 15] | C (16 to 32 μg/ml) | – |
| CCc1c(C)nn(-c2ccccc2O)c1C [compound 17] | A (≦2 μg/ml) | A (≦1 μg/ml) |
| Cc1nn(-c2ccc(F)cc2O)c(C)c1C [compound 18] | B (4 to 16 μg/ml) | – |
| Cc1nn(-c2cc(O)ccc2O)c(C)c1Cl [compound 19] | C (16 to 32 μg/ml) | – |
| Cc1nn(-c2cc(F)ccc2O)c(C)c1C [compound 20] | D (>32 to 64 μg/ml) | – |
| Cc1nn(-c2ccc(F)cc2O)c(C)c1Cl [compound 21] | B (4 to 16 μg/ml) | A (≦1 μg/ml) |
| CCOC(=O)c1c(C)nn(-c2ccccc2O)c1C [compound 22] | D (>32 to 64 μg/ml) | – |
| COC(=O)CCc1c(C)nn(-c2ccccc2O)c1C [compound 23] | D (>32 to 64 μg/ml) | – |
| CCCCc1c(C)nn(-c2ccccc2O)c1C [compound 24] | C (16 to 32 μg/ml) | A (≦1 μg/ml) |
| Cc1cc(C)n(-c2ccc(F)cc2O)n1 [compound 25] | B (4 to 16 μg/ml) | – |
| Cc1cc(C)n(-c2ccc(Cl)cc2O)n1 [compound 26] | A (≦2 μg/ml) | A (≦1 μg/ml) |
| Cc1cc(C)n(-c2ccc([N+](=O)[O-])cc2O)n1 [compound 28] | C (16 to 32 μg/ml) | – |
| Cc1nn(-c2ccc(Cl)cc2O)c(C)c1C [compound 30] | A (≦2 μg/ml) | A (≦1 μg/ml) |
| Cc1cc(C)n(-c2ccc(N)cc2O)n1 [compound 31] | B (4 to 16 μg/ml) | – |
| Cc1nn(-c2ccc([N+](=O)[O-])cc2O)c(C)c1C [compound 32] | B (4 to 16 μg/ml) | – |
| Cc1cc(C)n(-c2ccc(O)cc2O)n1 [compound 33] | A (≦2 μg/ml) | – |
| Cc1nn(-c2ccc(N)cc2O)c(C)c1C [compound 34] | B (4 to 16 μg/ml) | – |
| COC(=O)c1ccc(-n2nc(C)cc2C)c(O)c1 [compound 35] | C (16 to 32 μg/ml) | – |
| Cc1cc(C)n(-c2c(N)cccc2O)n1 [compound 36] | D (>32 to 64 μg/ml) | – |

| Structure (SMILES) | MIC (T. rubrum) [1] | MIC (T. mentagrophytes) [2] |
| --- | --- | --- |
| Cc1cc(C)n(-c2ccc(C(=O)O)cc2O)n1 [compound 37] | B (4 to 16 μg/ml) | – |
| Cc1cc(C)n(-c2ccc(C(=O)N(C)C)cc2O)n1 [compound 38] | B (4 to 16 μg/ml) | – |
| Cc1cc(C)n(-c2ccc(C(N)=O)cc2O)n1 [compound 39] | C (16 to 32 μg/ml) | – |
| Cc1nn(-c2ccc(C(=O)O)cc2O)c(C)c1C [compound 40] | D (>32 to 64 μg/ml) | – |
| Cc1nn(-c2ccc(C(N)=O)cc2O)c(C)c1C [compound 41] | D (>32 to 64 μg/ml) | – |
| Cc1nn(-c2ccc(C(N)=O)cc2O)c(C)c1Cl [compound 42] | D (>32 to 64 μg/ml) | – |
| Cc1cc(C)n(-c2c(O)cccc2O)n1 [compound 43] | D (>32 to 64 μg/ml) | – |
| Cc1ccc(-n2nc(C)cc2C)c(O)c1 [compound 44] | A (≦2 μg/ml) | A (≦1 μg/ml) |
| COc1ccc(-n2nc(C)cc2C)c(O)c1 [compound 45] | A (≦2 μg/ml) | A (≦1 μg/ml) |
| Cc1cc(C)n(-c2c(C)cccc2O)n1 [compound 46] | D (>32 to 64 μg/ml) | – |
| Cc1cc(C)n(-c2ccc(CO)cc2O)n1 [compound 47] | B (4 to 16 μg/ml) | – |
| CNc1ccc(-n2nc(C)cc2C)c(O)c1 [compound 48] | B (4 to 16 μg/ml) | – |
| Cc1ccc(O)c(-n2nc(C)cc2C)c1 [compound 49] | D (>32 to 64 μg/ml) | – |
| Cc1cc(C)n(-c2ccc(C(F)(F)F)cc2O)n1 [compound 50] | B (4 to 16 μg/ml) | – |
| Cc1cc(C)n(-c2cccc(C)c2O)n1 [compound 51] | D (>32 to 64 μg/ml) | – |
| CCc1ccc(-n2nc(C)cc2C)c(O)c1 [compound 52] | A (≦2 μg/ml) | A (≦1 μg/ml) |
| Cc1nn(-c2ccccc2O)c(C)c1F [compound 53] | B (4 to 16 μg/ml) | – |
| Cc1cc(C)n(-c2ccc(Br)cc2O)n1 [compound 54] | A (≦2 μg/ml) | A (≦1 μg/ml) |
| Cc1nn(-c2ccc(Br)cc2O)c(C)c1Cl [compound 55] | A (≦2 μg/ml) | A (≦1 μg/ml) |
| Cc1nn(-c2ccc(Br)cc2O)c(C)c1C [compound 56] | A (≦2 μg/ml) | A (≦1 μg/ml) |
| CC(=O)Oc1ccc(-n2nc(C)cc2C)c(O)c1 [compound 57] | B (4 to 16 μg/ml) | – |
| CC(=O)Oc1ccc(-n2nc(C)c(Cl)c2C)c(O)c1 [compound 58] | A (≦2 μg/ml) | – |
| CC(=O)Oc1ccc(-n2nc(C)c(C)c2C)c(O)c1 [compound 59] | B (4 to 16 μg/ml) | – |
| Cc1nn(-c2ccc(O)cc2O)c(C)c1Cl [compound 63] | A (≦2 μg/ml) | A (≦1 μg/ml) |
